Earlier results, collected in patent US5520931A (Gacell Laboratories AB, priority 1992, dated 1996).

Tested on: cancer pain
Details: severe pain, WHO programme

For `CN1CC[C@]23c4c5ccc(O)c4O[C@H]2[C@@H](O)C=C[C@H]3[C@H]1C5` [morphine], the “efficacy and acceptability in advanced cancer pain” value is listed as “both efficacious and acceptable”.
